ChEMBL document CHEMBL1137896, “Synthesis and AMPA receptor antagonistic activity of a novel 7-imidazolyl-6-trifluoromethyl quinoxalinecarboxylic acid with a substituted phenyl group and improved its good physicochemical properties by introduced CF3 group” (Bioorg Med Chem Lett, 2004)
≈ marks a conversion by molar mass, not a printed value.

Experiments:
[1] = molecular target: Glutamate receptor ionotropic, AMPA (Rattus norvegicus, UniProt P19490+P19491+P19492+P19493); assay: Displacement of [3H]AMPA (5 nM) from ionotropic glutamate receptor AMPA of rat cerebral cortex synaptic membrane preparation; assay type: tissue-based
Rattus norvegicus [2] = assay: In vivo protective effect in focal ischemia rat model was determined after intravenous dosage at 15 mg/kg/h for 4 hr; assay type: functional
[3] = Solubility at pH 7.4; assay type: physicochemical; settings: buffer
Rattus norvegicus [4] = assay: In vivo protective effect in focal ischemia rat model was determined after intravenous dosage at 30 mg/kg/h for 4 hr; assay type: functional
Rattus norvegicus [5] = assay: In vivo protective effect in focal ischemia rat model was determined after intravenous dosage at 2.5 mg/kg/h for 4 hr; assay type: functional

Ki [1] [nM] | SMILES | other results
29 | O=C(Nc1ccc(C(F)(F)F)cc1)OCc1cn(-c2cc3nc(C(=O)O)c(O)nc3cc2C(F)(F)F)cn1 | –
20 | O=C(Nc1ccc(Br)cc1)OCc1cn(-c2cc3nc(C(=O)O)c(O)nc3cc2C(F)(F)F)cn1 | –
23 | O=C(Nc1ccccc1)OCc1cn(-c2cc3nc(C(=O)O)c(O)nc3cc2C(F)(F)F)cn1 | –
190 | O=C(NCc1ccccc1)OCc1cn(-c2cc3nc(C(=O)O)c(O)nc3cc2C(F)(F)F)cn1 | –
– | O=c1[nH]c2cc(-n3ccnc3)c([N+](=O)[O-])cc2[nH]c1=O [YM-90K] | Protection (Rattus norvegicus [2]): 2.8; solubility [3]: 1000 µg/mL (≈ 3.66 mM)
35 | O=C(Nc1cccc(C(=O)O)c1)OCc1cn(-c2cc3nc(C(=O)O)c(=O)[nH]c3cc2C(F)(F)F)cn1 | –
13 | O=C(Nc1cc(Cl)cc(Cl)c1)OCc1cn(-c2cc3nc(C(=O)O)c(O)nc3cc2C(F)(F)F)cn1 | –
30 | COc1ccc(NC(=O)OCc2cn(-c3cc4nc(C(=O)O)c(O)nc4cc3C(F)(F)F)cn2)cc1 | –
– | O=C(O)Cn1c(=O)c(=O)[nH]c2cc([N+](=O)[O-])c(-n3ccnc3)cc21 [ZONAMPANEL] | solubility [3]: > 5000 µg/mL; Protection (Rattus norvegicus [4]): 0.5
20 | Cc1ccc(NC(=O)OCc2cn(-c3cc4nc(C(=O)O)c(O)nc4cc3C(F)(F)F)cn2)cc1 | –
– | O=C(Nc1ccc(C(=O)O)cc1)OCc1cn(-c2cc3nc(C(=O)O)c(O)nc3cc2[N+](=O)[O-])cn1 | Protection (Rattus norvegicus [5]): 3; solubility [3]: 4860 µg/mL (≈ 9.83 mM)
86 | O=C(O)c1nc2cc(-n3ccnc3)c(C(F)(F)F)cc2nc1O | –
16 | O=C(Nc1ccc(C(=O)O)cc1)OCc1cn(-c2cc3nc(C(=O)O)c(O)nc3cc2C(F)(F)F)cn1 | Protection (Rattus norvegicus [5]): 2.7; solubility [3]: 8290 µg/mL (≈ 16 mM)

SMILES | Ki [1] [nM] | other results
O=C(Nc1cccc(Br)c1)OCc1cn(-c2cc3nc(C(=O)O)c(O)nc3cc2C(F)(F)F)cn1 | 5.2 | –
